Test results as given in patent US11684682B2, “Chelating AAZTA conjugates and complexes thereof” (BRACCO IMAGING S.P.A., priority 2018, dated 2023).
Like-named read-outs stand apart in the source and are kept apart here.

Columns and labels:
[1] = Equilibrium study of Bi(AAZTA): competition of AAZTA with NTA for Bi^3+ by UV-spectrophotometry; assay type: physicochemical; conditions: 0.15 M NaClO4
Procedure: The stability constant of Bi(AAZTA) was determined by following the competition reaction of AAZTA with NTA for Bi^3+ (Eq. (10)) with UV-spectrophotometry in the wavelength range of 210-350 nm. The concentration of Bi^3+ and NTA was 30.2 μM and 10 mM while that of the AAZTA was varied between 0 and 50 μM (6×2 mL samples with the addition of AAZTA to the pre-prepared Bi(NTA)2 complex) in 0.15 M NaClO4 solution. The pH was adjusted to pH=7.4 by stepwise addition of concentrated NaOH or HClO4. The samples were kept at 50° C. for a week and at 25° C. for two weeks in order to attain the equilibrium (the time needed to reach the equilibria was determined by spectrophotometry). The spectrophotometric measurements were made with the use of PerkinElmer Lambda 365 UV-Vis spectrophotometer at 25° C., using 1.0 cm cells. For the equilibrium calculation, the protonation constants of AAZTA and NTA ligands (AAZTA: log K1^H=10.29, log K2^H=6.51, log K3^H=3.86, log K4^H=1.94, log K5^H=1.00; NTA: log K1^H=9.22, log K2^H=2.98, log K3^H=1.06; 25° C., 0.15 M NaClO4) and the stability constants of Bi(NTA) and Bi(NTA)2 complexes (log KBi(NTA)=16.97, log βBi(NTA)2=26.21, 25° C., 0.15 M NaClO4) have been determined as it is described in the literature (Baranyai, Eur. J. Inorg. Chem., 2013, 147-162, KARADAKOV, Talanta, 1970, 17, 883-887). The equilibrium constants were calculated with the program PSEQUAD (L. Zekany and I. Nagypal in PSEQUAD, Vol. (Ed. D. Leggett), Springer US, 1985, pp. 291-353). Bi(NTA)2+HxAAZTA ? Bi(AAZTA)+2HyNTA (10) Thermodynamic stability constant of Bi(AAZTA) calculated from the UV-spectrophotometric studies of Bi^3+-NTA-AAZTA systems is log KBi(AAZTA)=26.45 (6) at 25° C. in 0.15 M NaClO4. By taking into account the protonation constant of AAZTA ligand (log K1^H=10.29, log K2^H=6.51, log K3^H=3.86, log K4^H=1.94, log K5^H=1.00, 25° C., 0.15 M NaClO4) and the stability constant of Bi(AAZTA) (log KBi(AAZTA)=26.45, 25° C. in 0.15 M NaClO4), the conditional stability constant of Bi(AAZTA) was calculated to be log K^condBi(AAZTA)=log KBi(AAZTA)/(1+αH)=23.5 at pH=7.4 and 25° C. in 0.15 M NaClO4 (αH=K1^H[H^+]+K1^HK2^H[H^+]^2+ . . . +K1^HK2^H . . . Kn^H[H^+]^n and K1^H, K2^H, . . . Kn^H are the protonation constant of the free ligand at pH=7.4 in 0.15 M NaClO4 solution).

[2] = 0.15 M NaCl, 25° C.; cited from earlier work
[3] = assay type: physicochemical; conditions: 25° C., 0.15 M NaCl
Source text: The thermodynamic properties of Sc(AAZTA-TATE) complex were characterized by the conditional stability constant (log K^cond=log K^therm/(1+αH) where αH=K1^H[H^+]+K1^HK2^H[H^+]^2+ . . . +K1^HK2^H . . . Kn^H[H^+]^n and K1^H, K2^H, . . . Kn^H are the protonation constant of the free ligand) at pH=7.4 in 0.15 M NaCl solution. To determine the log K^cond value of Sc(AAZTA-TATE) complex, the competition reaction of AAZTA-TATE with NTA for Sc^3+ have been studied by ^45Sc NMR spectroscopy (Bruker Avance III 400 spectrometer at 9.4 T) with the integral of Sc(NTA)2 complex (δSc=59.9 ppm) formed in the reactions (Eq. (4), H3NTA=nitrilo-triacetic acid, pH=7.4, 25° C., 0.15 M NaCl).
[formula] For the equilibrium characterization of Sc(AAZTA-TATE), 7 samples were prepared in which the concentration of Sc^3+ and AAZTA-TATE was 203.3 μM and 206.2 μM, while that of the NTA was varied between 0.0 and 20.06 mM (7×1 mL samples were prepared by the addition of AAZTA-TATE to the pre-prepared Sc(NTA)2 complex) in 0.15 M NaCl solution. […] The samples were kept at 25° C. for 8 weeks in order to attain the equilibrium (the time needed to reach the equilibria was determined by ^45Sc NMR spectroscopy).
To compare the equilibrium properties of Sc(AAZTA-TATE) with that of Sc(AAZTA), the conditional stability constant of Sc(AAZTA) was determined by following the competition reaction of AAZTA with NTA for Sc^3+ with ^45Sc NMR spectroscopy by using the integral of Sc(NTA)2 complex (δSc=59.9 ppm) formed in the reactions (Eq. (5), pH=7.4, 25° C., 0.15 M NaCl).
For the equilibrium characterization of Sc(AAZTA), 7 samples were prepared in which the concentration of Sc^3+ and AAZTA was 203.3 μM and 207.1 μM, while that of the NTA was varied between 0 and 20.06 mM (7×2 mL samples with the addition of AAZTA to the pre-prepared […] complex) in 0.15 M NaCl solution. […] The samples were kept at 25° C. for 8 weeks in order to attain the equilibrium (the time needed to reach the equilibria was determined by ^45Sc NMR spectroscopy). […]

[4] = Transchelation reaction between Bi(AAZTA) and DTPA by UV-spectrophotometry; assay type: physicochemical; conditions: pH=9.0, 25° C., 0.15 M NaClO4
Procedure: The kinertic properties of Bi(AAZTA) was determined by following the transchelation reaction between Bi(AAZTA) and DTPA with UV-spectrophotometry at 278 nm and 25° C. in 0.15 M NaClO4 solution (stability constant of Bi(DTPA) is log KBi(DTPA)=29.3 at 25° C. in 0.6 M NaClO4, V. Kornev, A. Troubachev, Russ. J. Inorg. Chem, 1987, 32, 1419). In these experiments the concentration of Bi(AAZTA) was 0.1 mM while DTPA was applied in 10 and 20 fold excess to ensure the occurrence of pseudo-first order conditions. The pH was adjusted to 8.5, 9.0, 9.5, 10.0, 10.5 and 11.0 by stepwise addition of concentrated NaOH or HClO4. For keeping the pH values constant 0.01 M N-methyl-piperazine (pH≤10) buffers were used. At pH>10, buffer was not used to keep the constant pH due to the presence of OH^− in a high concentration. The pseudo-first-order rate constants (kd) were calculated by fitting the absorbance—time data sets for Bi(AAZTA)—DTPA system to Eq. (9). The dissociation rates (kd) of Bi(AAZTA) complex is independent from the [DTPA] and increase with the increase of pH.

**Q.** With `CC1(N(CC(=O)O)CC(=O)O)CN(CC(=O)O)CCN(CC(=O)O)C1` [AAZTA, 6-amino-6-methylperhydro-1,4-diazepinetetraacetic acid] as the compound, how does the “log K1^H (protonation constant)” value ([1]; 25° C.) read?
**A.** 10.29

**Q.** What about the “log K2^H (protonation constant)” value ([1]; 25° C.) of the same compound?
**A.** 6.51

**Q.** What about the “log K3^H (protonation constant)” value ([1]; 25° C.) of the same compound?
**A.** 3.86

**Q.** And the “log K4^H (protonation constant)” value ([1]; 25° C.)?
**A.** 1.94

**Q.** And the “log K5^H (protonation constant)” value ([1]; 25° C.)?
**A.** 1.00

**Q.** And the “log K1^H (protonation constant)” value [2]?
**A.** 9.98

**Q.** And the “log K2^H (protonation constant)” value [2]?
**A.** 6.52

**Q.** What about the “log K3^H (protonation constant)” value [2] of the same compound?
**A.** 3.76

**Q.** What about the “log K4^H (protonation constant)” value [2] of the same compound?
**A.** 2.21

**Q.** For `O=C(O)CN(CC(=O)O)CC(=O)O` [NTA, nitrilo-triacetic acid, reference compound], which “log K1^H (protonation constant)” value [3] is on record?
**A.** 9.13 (1)

**Q.** What about the “log K2^H (protonation constant)” value [3] of the same compound?
**A.** 2.63 (2)

**Q.** And the “log K3^H (protonation constant)” value [3]?
**A.** 1.64 (3)

**Q.** And the “log K1^H (protonation constant)” value ([1]; NTA ligand, 25° C.)?
**A.** 9.22

**Q.** What about the “log K2^H (protonation constant)” value ([1]; NTA ligand, 25° C.) of the same compound?
**A.** 2.98

**Q.** What about the “log K3^H (protonation constant)” value ([1]; NTA ligand, 25° C.) of the same compound?
**A.** 1.06

**Q.** Which “log KBi(AAZTA) (thermodynamic stability constant)” value ([1]; 25° C.) does the source give for `CC1(N(CC(=O)[O-])CC(=O)[O-])CN(CC(=O)[O-])CCN(CC(=O)[O-])C1.[Bi+3]` [Bi(AAZTA)] here?
**A.** 26.45 (6)

**Q.** What about the “log K^cond (conditional stability constant)” value ([1]; pH=7.4, 25° C.) of the same compound?
**A.** 23.5

**Q.** And the “kd (rate constant of dissociation)” value [4]?
**A.** 1.67e-06 s⁻¹
